Experimental data published in US10064838B2, “Method for treating tau-associated diseases using tetrahydropyranol derivatives” (NATIONAL TAIWAN NORMAL UNIVERSITY, priority 2016, dated 2018).

What was measured:
ΔK280 tauRD-DsRed = biological target: T1, ΔK280 tauRD-DsRed (Homo sapiens, UniProt P10636, DEL597-597); assay: Inhibition of ΔK280 tauRD-DsRed aggregation (DsRed fluorescence, high content analysis); type: cell-based; details: 8 h pretreatment, Dox 3 days, ΔK280 tauRD-DsRed 293 cells
T1 construct: tauRD: Gln^244-Glu^372 of the longest tau^441 isoform; expressed in transfected cells; host or cells: HEK-293 (Tet-On, doxycycline-induced)
Excerpt: We used human embryonic kidney HEK-293 (cultured with DMEM supplemented with 10% FBS) and neuroblastoma SH-SY5Y (cultured with DMEM F12 supplemented with 10% FBS) cells expressing a DsRed-tagged pro-aggregation mutant (ΔK280) of the C-terminal repeat domain of tau (tauRD: Gln^244-Glu^372 of the longest tau^441 isoform). The recombinant tauRD-DsRed construct was under the control of a hybrid human cytomegalovirus (CMV)/TetO2 promoter that can be induced by adding doxycycline. The Tet-On ΔK280 tauRD-DsRed 293 and SH-SY5Y cells were grown in medium containing blasticidin (5 μg/mL) and hygromycin (100 μg/mL) and were used for the following evaluation.
ΔK280 tauRD-DsRed 293 cells were seeded into 96-well plates, grown for 24 h, and pretreated with 0.1, 1, 10 μM of congo red (a known tau aggregation inhibitor), compound (A), compound (B), and compound (C) for 8 h. Then doxycycline (Dox; 1 μg/mL) was added for 3 days to induce ΔK280 tauRD-DsRed expression and DsRed fluorescence was assessed using a high content analysis (HCA) system.
The DsRed fluorescence of ΔK280 tauRD-DsRed fusion protein was used to reflect the aggregation condition of ΔK280 tauRD. Misfolding of fused DsRed occurred when ΔK280 tauRD aggregated, and thus decreasing the DsRed fluorescence. Accordingly, inhibition of ΔK280 tauRD aggregation may improve the DsRed misfolding and increase DsRed fluorescence.

[1] = MTT cytotoxicity in SH-SY5Y cells; type: cell-based; details: human, 24 h treatment, read-out: half maximal inhibitory concentration (IC50), cytotoxicity
Experimental: (§1) The HEK-293 cells and SH-SY5Y cells were seeded into a 48-well plate (5×10^4), grown for 24 h, and treated with 0.1 μM, 1 μM, 10 μM, 100 μM of compound (A), compound (B), or compound (C) individually for 24 h. Then 20 μL of MTT (5 mg/mL dissolved in PBS) was added for 2 h and the full wavelength microplate spectrophotometer was used for detecting the absorbance of the purple formazan at 570 nm.
(§2) As a result, the cytotoxicities of compound (A), compound (B), and compound (C) are low and not harmful to the cells.

[2] = Cytotoxicity in 293 cells expressing ΔK280 tauRD-DsRed fusion protein; type: cell-based; details: human, ΔK280 tauRD-DsRed 293 cells
[3] = MTT cytotoxicity in HEK-293 cells; type: cell-based; details: human, 24 h treatment, read-out: half maximal inhibitory concentration (IC50), cytotoxicity
Experimental: as §1, §2

[4] = tested on: ΔK280 tauRD-DsRed 293 cells; assay: ROS level (DCFH-DA, flow cytometry) in induced ΔK280 tauRD-DsRed 293 cells; type: cell-based, human; details: 10 μM, 8 h pretreatment, Dox 3 days
Experimental: (§3) ΔK280 tauRD-DsRed 293 cells were seeded into 12-well plates, grown for 24 h, and pretreated with 10 μM of congo red, compound (A), compound (B), and compound (C) respectively for 8 h. Then, doxycycline (1 μg/mL) was added for 3 days to induce ΔK280 tauRD-DsRed expression.
Next, uninduced cells, doxycycline-induced but compound-untreated cells, and doxycycline-induced and compound-treated cells were incubated with 2′,7′-dichlorodihydrofluorecein diacetate (DCFH-DA) in 37° C. for 30 minutes, and then washed with PBS. The excited green fluorescence intensity under 492-495/517-527 nm of excitation/emission wavelength was measured using flow cytometry (BD) to evaluate the ROS level.

caspase 3 = assay: Caspase 3 activity (Ac-DEVD-AMC) in induced ΔK280 tauRD-DsRed 293 cells; type: cell-based, human; details: 10 μM, 8 h pretreatment, Dox 3 days
Experimental: as §3
In addition, the caspase 3 activity of uninduced cells, doxycycline-induced but compound-untreated cells, and doxycycline-induced and compound-treated cells were measured using Caspase 3 Assay Kit (Sigma). 10^6 cells in each group were harvested and 100 μL of lysis buffer was added, incubated on the ice for 20 minutes, and then, Ac-DEVD-AMC substrate was added into each group. The release of the fluorescent AMC was recorded under 360/460 nm of excitation/emission wavelength using an FLx800 microplate fluorescence reader (Bio-Tek). The caspase 3 activity was calculated using an AMC standard curve.

[5] = tested on: ΔK280 tauRD-DsRed SH-SY5Y cells; assay: Neurite growth in induced ΔK280 tauRD-DsRed SH-SY5Y cells; type: cell-based, human; details: 10 μM, 8 h pretreatment, Dox 7 days, retinoic acid-differentiated
Experimental: ΔK280 tauRD-DsRed SH-SY5Y tauRD-DsRed cells were seeded in 6-well plate (1×10^5/well) in a medium containing all-trans retinoic acid (10 μM), grown for 24 h, and pretreated with 10 μM of congo red, compound (A), compound (B), and compound (C) for 8 h; after which, ΔK280 tauRD-DsRed expression was induced with 1 μg/mL doxycycline for 7 days. The cells were then fixed in 4% paraformaldehyde, permeabilized with 0.1% Triton X-100, blocked in 3% BSA, stained with the primary antibody anti-TUBB3 (against neuronal Class III β-tubulin) (1:1000; Convance) and with a secondary anti-rabbit Alexa Fluor® 555 antibody (1:500; Molecular Probes), and then incubated at room temperature for 3 h. Nuclei were counterstained with 4′,6-diamidino-2-phenylindole (DAPI). The total outgrowth in the untreated cells, cells treated with congo red, compound (A), compound (B), and compound (C) were assessed using MetaMorph image acquisition and analysis software.

T1 sequence (P10636 with tags, fused parts or gaps isoform P10636-8 DEL280-280): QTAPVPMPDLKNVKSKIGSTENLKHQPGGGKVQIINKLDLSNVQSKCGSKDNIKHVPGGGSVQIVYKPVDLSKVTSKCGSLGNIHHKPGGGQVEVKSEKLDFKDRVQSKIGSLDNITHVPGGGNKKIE

Compound	DsRed fluorescence intensity relative to untreated cells (100%) (ΔK280 tauRD-DsRed; 1-10 μM)	IC50 at 24 h [1] [µM]	IC50 at 80 h [2] [µM]	IC50 at 24 h [3] [µM]	ROS level (uninduced cells 100%; induced untreated 110%) [4] [%]	DsRed fluorescence intensity relative to untreated cells (100%) (ΔK280 tauRD-DsRed; 10 μM) [%]	caspase 3 activity (uninduced cells 100%; induced untreated 129%) (caspase 3) [%]	neurite growth (uninduced cells 100%; induced untreated 89%) [5] [%]
CCOC(=O)[C@@H]1OC(O)[C@H](C)[C@@H](c2ccccc2)[C@@H]1[N+](=O)[O-] (some centres unmarked) [compound (C)]	106-113%	275	42	135				
Nc1c(/N=N/c2ccc(-c3ccc(/N=N/c4cc(S(=O)(=O)O)c5ccccc5c4N)cc3)cc2)cc(S(=O)(=O)O)c2ccccc12 [congo red]			60		93	108	63	99
CCOC(=O)[C@@H]1OC(O)[C@H](C)[C@@H](c2ccc(OC)cc2)[C@@H]1[N+](=O)[O-] (some centres unmarked) [compound (A)]	105-110%	267	32	128				
CCOC(=O)[C@@H]1OC(O)[C@H](C)[C@@H](c2cccs2)[C@@H]1[N+](=O)[O-] (some centres unmarked) [compound (B)]		273	42	135		111		
